Experimental data published in patent publication US5593970A, “Heterocyclic anthracycline analogs” (priority 1994, dated 1997).
Where a name gives a salt, the structure may show the parent alone. Read-outs that look alike come from different tables or passages of the source.

Legend:
Assay in all cases: Microculture tetrazolium assay
Assay type in all cases: cell-based
[1] = test system: SKOV3
[2] = test system: SKVLB; conditions: for VLB/OV3: IC50 ratio SKVLB/SKOV3; for IC50: SKVLB
[3] = test system: T47D
[4] = test system: LOX
[5] = test system: HT29
[6] = Homo sapiens, SK-OV-3, SKOV3, read-out: IC50
[7] = Homo sapiens, HT-29, HT29, read-out: IC50

Row | Compound | IC50 [1, 6] [µM] | IC50 ([2]; read-out: IC50) [µM] | IC50 ([3]; Homo sapiens, read-out: IC50) [µM] | IC50 ([4]; read-out: IC50) [µM] | IC50 [5, 7] [µM] | IC50 ([1]; SKOV3, read-out: IC50) [µM] | IC50 ([3]; read-out: IC50) [µM] | IC50 ([5]; HT29, read-out: IC50) [µM] | VLB/OV3 [2] | IC50 ([1]; Homo sapiens, SK-OV-3, SKOV3) [µM] | IC50 [2] [µM] | IC50 ([3]; Homo sapiens) [µM] | IC50 [4] [µM] | IC50 ([5]; Homo sapiens, HT-29, HT29) [µM]
1 | COC[C@@H]1CC2=C(C(=O)c3cc4ccccc4c(O)c3C2=O)[C@@H](O[C@H]2C[C@H](N)[C@H](O)[C@H](C)O2)O1 [BCH-1695, (1'S ,1R,3S)-5,12-dioxo-6-hydroxy-3-methoxymethyl-1-(2',3',6'trideoxy-3'-amino-L-lyxohexopyranose)-3,4,5,12-tetrahydroanthraceno-[2,3-c]pyran] | – | 25.6 | 12.8 | 5.23 | 14.8 | – | – | – | 4.46 | 5.74 | – | – | – | –
2 | CC(=O)C1CC2=C(C(=O)c3cc4ccccc4c(O)c3C2=O)C(O)S1 (stereo not drawn) [BCH-1167, Trans-3-aceto-1,6-hydroxy-1,2,3,4,5,12-hexahydro-2-(sulfur)naphthacene-5,12-dione and cis-3-aceto-1,6-hydroxy-1,2,3,4,5,12-hexahydro-2-(sulfur)naphthacene-5,12-dione] | > 100 | > 100 | > 100 | > 100 | > 100 | – | – | – | – | – | – | – | – | –
3 | CC(=O)[C@H]1Cc2c(O)c3c(c(O)c2[C@H](O[C@H]2C[C@H](O)[C@H](O)[C@H](C)O2)O1)C(=O)c1ccccc1C3=O [BCH-1625] | 5.1 | 45 | 34 | 16 | 61 | – | – | – | 8.8 | – | – | – | – | –
4 | COCC1(COC)CC2=C(C(=O)c3cc4ccccc4c(O)c3C2=O)[C@H](O[C@H]2C[C@H](N)[C@H](O)[C@H](C)O2)O1 [BCH-1991, (1'S,1S)-5,12-dioxo-6-hydroxy-3,3-bis-methoxymethyl-1-(2',3',6'-trideoxy-3'-amino-L-lyxohexopyranose)-3,4,5,12-tetrahydroanthraceno-[2,3-c]-pyran hydrochloride] | 1.47 | – | 0.918 | 1.29 | 1.72 | – | – | – | 3.77 | – | 5.54 | – | – | –
5 | CC(=O)C1Cc2c(O)c3c(c(O)c2C(O[C@H]2C[C@H](NC(=O)C(F)(F)F)[C@H](O)[C@H](C)O2)O1)C(=O)c1ccccc1C3=O (mixture of isomers) [BCH-1131, (1'S,1S,3R) and (1'S,1R,3S)-Methyl-[5,12-dihydroxy-1-(2',3',6'-trideoxy-3'-trifluoroacetamido-4'-hydroxy-L-lyxohexopyranose)-6,11-dioxo-3,4,6,11,tetrahydroanthraceno-(2,3-C)pyran-3-yl]ketone] | 4.58 | 11.2 | 9.48 | 4.83 | 6.93 | – | – | – | 2.45 | – | – | – | – | –
6 | CC(=O)[C@H]1CC2=C(C(=O)c3cc4ccccc4c(O)c3C2=O)[C@H](O[C@H]2O[C@H](CO)[C@@H](O)[C@H](O)[C@H]2NC(=O)N(CCCl)N=O)O1 [BCH-2039] | – | – | – | – | – | – | – | – | 6.01 | 13.5 | 81.2 | 12.6 | 1.55 | 4.43
7 | C=C[C@H]1CC2=C(C(=O)c3cc4ccccc4c(O)c3C2=O)[C@H](O[C@H]2C[C@H](NC(=O)C(F)(F)F)[C@H](O)[C@H](C)O2)O1 [BCH-1155] | 6.25 | 7.01 | 8.5 | 3.97 | 8.8 | – | – | – | 1.12 | – | – | – | – | –
8 | CC(=O)C1CC2=C(CS1)C(=O)c1cc3ccccc3c(O)c1C2=O (stereo not drawn) [BCH-1151] | 53.3 | 75 | 62.5 | 30.5 | 58.9 | – | – | – | 1.41 | – | – | – | – | –
9 | CC[C@H]1CC2=C(C(=O)c3cc4ccccc4c(O)c3C2=O)[C@H](O[C@H]2C[C@H](O)[C@H](O)[C@H](C)O2)O1 [BCH-1629] | 6.7 | – | 9 | 7.4 | 22 | – | – | – | 2.8 | – | 19 | – | – | –
10 | C[C@@H]1O[C@@H](O[C@H]2O[C@H](C(=O)COC(=O)C(C)(C)C)CC3=C2C(=O)c2cc4ccccc4c(O)c2C3=O)C[C@H](NC(=O)C(F)(F)F)[C@@H]1O [BCH-1136, (1'S,1R,3S)-1,2,3,4,5,12-hexahydro-6-hydroxy-3-trimethylacetoxyaceto-1-N-trifluoroacetyl-L-daunosamine-(2-oxo)-naphthacene-5,12-dione] | 18 | 23.1 | 18.9 | 12.3 | 11.5 | – | – | – | 1.28 | – | – | – | – | –
11 | CO[C@H]1O[C@H](C(=O)CP(=O)(OC)OC)CC2=C1C(=O)c1cc3ccccc3c(O)c1C2=O (relative stereo) [BCH-1650] | – | – | – | – | – | – | – | – | 1.12 | 0.802 | 0.895 | 2.44 | 0.755 | 0.629
12 | C[C@@H]1O[C@@H](O[C@H]2OCCC3=C2C(=O)c2cc4ccccc4c(O)c2C3=O)C[C@H](NC(=O)C(F)(F)F)[C@@H]1O [BCH-1646] | – | 6.56 | 2.81 | 2.96 | – | – | – | – | 1.31 | 4.99 | – | – | – | 5.92
13 | CC(=O)O[C@@H]1[C@H](C)O[C@@H](OC2OC(C(=O)CO)CC3=C2C(=O)c2cc4ccccc4c(O)c2C3=O)C[C@@H]1OC(C)=O (stereo partly drawn) [BCH-1626] | 2.32 | 7.66 | 5.39 | 2.99 | 5.18 | – | – | – | 3.30 | – | – | – | – | –
14 | CC(=O)[C@@H]1CC2=C(C(=O)c3c(cc4ccccc4c3O)C2=O)[C@@H](O)O1 (relative stereo) [BCH-722] | 19.2 | 83 | 12 | 43.7 | 7.11 | – | – | – | 4.32 | – | – | – | – | –

The next lines start with results.

Row | IC50 [1, 6] [µM] | IC50 ([2]; read-out: IC50) [µM] | IC50 ([3]; Homo sapiens, read-out: IC50) [µM] | IC50 ([4]; read-out: IC50) [µM] | IC50 [5, 7] [µM] | IC50 ([1]; SKOV3, read-out: IC50) [µM] | IC50 ([3]; read-out: IC50) [µM] | IC50 ([5]; HT29, read-out: IC50) [µM] | Compound | VLB/OV3 [2] | IC50 ([1]; Homo sapiens, SK-OV-3, SKOV3) [µM] | IC50 [2] [µM] | IC50 ([3]; Homo sapiens) [µM] | IC50 [4] [µM] | IC50 ([5]; Homo sapiens, HT-29, HT29) [µM]
15 | 3.06 | 5.82 | 2.59 | 2.49 | 1.38 | – | – | – | C[C@@H]1O[C@@H](O[C@@H]2O[C@@H](S(=O)(=O)c3ccccc3)CC3=C2C(=O)c2cc4ccccc4c(O)c2C3=O)C[C@H](NC(=O)C(F)(F)F)[C@@H]1O [BCH-2001] | 1.90 | – | – | – | – | –
16 | 3.7 | 12.1 | 6.21 | 5.4 | 3.38 | – | – | – | C=COC(=O)NCCCO[C@@H]1O[C@@H](C(C)=O)CC2=C1C(=O)c1cc3ccccc3c(O)c1C2=O (relative stereo) [BCH-2036] | 3.27 | – | – | – | – | –
17 | 0.245 | 0.47 | 0.735 | 0.201 | 0.0995 | – | – | – | CC[C@H]1Cc2c(O)c3c(c(O)c2[C@H](O[C@H]2C[C@H](N)[C@H](O)[C@H](C)O2)O1)C(=O)c1ccccc1C3=O [BCH-1633] | 1.92 | – | – | – | – | –
18 | 86.6 | 89.9 | 59.7 | 38.1 | 79.6 | – | – | – | C[C@@H]1O[C@@H](O[C@H]2O[C@H](C(C)(F)F)CC3=C2C(=O)c2cc4ccccc4c(O)c2C3=O)C[C@H](O)[C@@H]1O (mixture of isomers) [BCH-1662, (1'S,1S,3S) and (1'S,1R, 3R)-5,12-dioxo-3-(1,1-difluoroethyl)-6-hydroxy-1-(2',6'-dideoxy-L-lyxohexopyranose)-3,4,5,12-tetrahydroanthraceno-[2,3-c]-pyran] | 1.04 | – | – | – | – | –
19 | 2.02 | 3.83 | 3.73 | 1.37 | 0.597 | – | – | – | CC(=O)C1CC2=C(C(=O)c3cc4ccccc4c(O)c3C2=O)C(OC[C@H](O)CO)S1 (stereo partly drawn) [BCH-1645] | 1.90 | – | – | – | – | –
20 | 4.7 | 12 | 6.51 | 1.4 | 1.06 | – | – | – | CC(=O)C1CC2=C(C(=O)c3cc4ccccc4c(O)c3C2=O)C(O[C@H]2C[C@H](NC(=O)C(F)(F)F)[C@H](OS(C)(=O)=O)[C@H](C)O2)O1 (stereo partly drawn) [BCH-2094] | 2.55 | – | – | – | – | –
21 | > 100 | > 100 | > 100 | > 100 | > 100 | – | – | – | CC(F)(F)C1CC2=C(CO1)C(=O)c1c(cc3ccccc3c1O)C2=O (stereo not drawn) [BCH-1639, 3-(1',1'-difluoroethyl)-6 and 11-hydroxy-1,2,3,4-tetrahydro-(2-oxygen)-naphthacene-5,12-dione] | – | – | – | – | – | –
22 | – | 13 | – | 4.02 | – | 4.19 | 9.81 | 3.47 | CC(=O)[C@@H]1CC2=C(C(=O)c3cc4ccccc4c(O)c3C2=O)[C@H](OC[C@@H]2COC(C)(C)O2)S1 [BCH-1993] | 3.10 | – | – | – | – | –
23 | 2.4 | 4.7 | 3.6 | 2.1 | 3 | – | – | – | CCC1COC(OC2CC(NC(=O)C(F)(F)F)C(O)C(C)O2)C2=C1C(=O)c1c(cc3ccccc3c1O)C2=O [BCH-2080, (1'S,1S,4S)-5,12-Dioxo-4-ethyl-6-hydroxy-1-(2',3',6'-trideoxy-3'-trifluoroacetamido-L-lyxohexopyranose)-3,4,5,12-tetrahydroanthraceno-[2,3-c]-pyran] | – | – | – | – | – | –
24 | – | 8.62 | – | 1.91 | – | 2.74 | 4.41 | 1.96 | CC(=O)[C@H]1CC2=C(C(=O)c3cc4ccccc4c(O)c3C2=O)[C@@H](OC[C@@H]2COC(C)(C)O2)S1 [BCH-1994] | 3.15 | – | – | – | – | –
25 | 6.06 | 5.36 | 4.45 | 2.51 | 2.64 | – | – | – | CC(=O)CC1CC2=C(C(=O)c3cc4ccccc4c(O)c3C2=O)C(O[C@H]2C[C@H](NC(=O)C(F)(F)F)[C@H](O)[C@H](C)O2)O1 (mixture of isomers) [BCH-2097, (1'S,1R,3S) and (1'S,1S,3R)(6-hydroxy-1-(2',3',6'-trideoxy-3'-trifluoroacetamido-4'-hydroxy-L-lyxohexopyranose)-5,12-dioxo-3,4,5,12-tetrahydroanthraceno[2,3-c]pyran-3-yl)propanone] | 0.88 | – | – | – | – | –
26 | 1.56 | 6.72 | 2.14 | 2.3 | 2.69 | – | – | – | C[C@@H]1O[C@@H](O[C@@H]2O[C@@H]([C@H](O)CO)CC3=C2C(=O)c2cc4ccccc4c(O)c2C3=O)C[C@H](NC(=O)C(F)(F)F)[C@@H]1O [BCH-1997] | 4.31 | – | – | – | – | –
